Measurements published in PubChem BioAssay AID330 (DTP/NCI, 2004).
“And” between values parts separate entries of the source, which are not always exact repeats. Identical values can stand only once. Inconclusive results and toxic doses are left out.

Tested on: P388 leukemia ip, CD2F1 mice, survival T/C
Assay: NCI In Vivo Anticancer Drug Screen. Data for tumor model P388 Leukemia (intraperitoneal) in CD2F1 (CDF1) mice
Conditions: endpoint: median survival time, higher = longer survival
Method: The antitumor activity of compounds was measured in mice bearing transplantable tumors. Survival or tumor size were measured and the results are expressed as the measurement made in the treated group (T) divided by the measurement made in the vehicle treated control group (C). The tumor model used in this assay is P388 Leukemia (intraperitoneal) in CD2F1 (CDF1) mice

[1] = dose: 25.0 mg/kg/injection, schedule: Q01DX009 (ip), vehicle: saline with Tween-80
[2] = dose: 50.0 mg/kg/injection, schedule: Q01DX009 (ip), vehicle: saline with Tween-80
[3] = dose: 100.0 mg/kg/injection, schedule: Q04DX003 (ip), vehicle: saline with Tween-80
[4] = dose: 60.0 mg/kg/injection, schedule: Q01DX005 (ip), vehicle: saline with Tween-80
[5] = dose: 120.0 mg/kg/injection, schedule: Q01DX005 (ip), vehicle: saline with Tween-80
[6] = dose: 240.0 mg/kg/injection, schedule: Q01DX005 (ip), vehicle: saline with Tween-80
[7] = dose: 100.0 mg/kg/injection, schedule: Q01DX009 (ip), vehicle: saline with Tween-80
[8] = dose: 200.0 mg/kg/injection, schedule: Q01DX009 (ip), vehicle: saline with Tween-80
[9] = dose: 50.0 mg/kg/injection, schedule: Q01DX005 (ip), vehicle: saline with Tween-80
[10] = dose: 100.0 mg/kg/injection, schedule: Q01DX005 (ip), vehicle: saline with Tween-80
[11] = dose: 200.0 mg/kg/injection, schedule: Q01DX005 (ip), vehicle: saline with Tween-80
[12] = dose: 50.0 mg/kg/injection, schedule: Q01DX009 (ip), vehicle: Klucel (hydroxypropylcellulose) (HPC)
[13] = dose: 100.0 mg/kg/injection, schedule: Q01DX009 (ip), vehicle: Klucel (hydroxypropylcellulose) (HPC)
[14] = dose: 200.0 mg/kg/injection, schedule: Q01DX009 (ip), vehicle: Klucel (hydroxypropylcellulose) (HPC)
[15] = dose: 50.0 mg/kg/injection, schedule: Q01DX005 (ip), vehicle: Klucel (hydroxypropylcellulose) (HPC)
[16] = dose: 100.0 mg/kg/injection, schedule: Q01DX005 (ip), vehicle: Klucel (hydroxypropylcellulose) (HPC)
[17] = dose: 200.0 mg/kg/injection, schedule: Q01DX005 (ip), vehicle: Klucel (hydroxypropylcellulose) (HPC)
[18] = dose: 25.0 mg/kg/injection, schedule: Q01DX005 (ip), vehicle: saline
[19] = dose: 50.0 mg/kg/injection, schedule: Q01DX005 (ip), vehicle: saline
[20] = dose: 100.0 mg/kg/injection, schedule: Q01DX005 (ip), vehicle: saline

In the case of CCC1CN2CCc3cc(OC)c(OC)cc3C2CC1CC1c2cc(OC)c(OC)cc2CCN1C(=O)C(Cc1c[nH]c2ccccc12)NC(=O)OC(C)(C)C (centres undefined), the T/C [1] is reported as 105 % of control, the T/C [2] is reported as 115 % of control and the T/C (dose: 66.0 mg/kg/injection, schedule: Q01DX009 (ip), vehicle: saline with Tween-80) is reported as 104 % of control. The T/C [3] was 104 % of control.

COC(=O)C(CCC1CCCCN1)(c1ccccc1)c1ccccc1 (centres undefined) was tested, and the T/C (dose: 25.0 mg/kg/injection, schedule: Q04DX003 (ip), vehicle: saline with Tween-80) was 120 % of control, the T/C (dose: 66.0 mg/kg/injection, schedule: Q04DX003 (ip), vehicle: saline with Tween-80) was 100 % of control and the T/C [3] was 150 % of control and 158 % of control.

For O=C1c2ccccc2C(=O)N1CCn1[nH]c(=O)c2ccccc2c1=O, the T/C [4] was 99 % of control, the T/C [5] was 90 % of control and the T/C [6] was 96 % of control.

For CCN(CC)CCNc1ccc(N)c2sc3ccccc3c(=O)c12, the T/C [2] was 103 % of control and 107 % of control and 119 % of control, the T/C [7] was 115 % of control and 120 % of control and 122 % of control and the T/C [8] was 96 % of control.

For CCC1=C[C@H]2CN(CCc3c([nH]c4ccccc34)[C@@](C(=O)OC)(c3cc4c(cc3OC)N(C)[C@H]3C(C(=O)OC)=C[C@]5(CC)C=CCN6CC[C@]43[C@@H]65)C2)C1, the T/C (dose: 1.0 mg/kg/injection, schedule: Q01DX001 (ip), vehicle: other) was 101 % of control, the T/C (dose: 2.0 mg/kg/injection, schedule: Q01DX001 (ip), vehicle: other) was 99 % of control and the T/C (dose: 4.0 mg/kg/injection, schedule: Q01DX001 (ip), vehicle: other) was 105 % of control. For the same molecule, the T/C (dose: 8.0 mg/kg/injection, schedule: Q01DX001 (ip), vehicle: other) was 107 % of control and 120 % of control, the T/C (dose: 16.0 mg/kg/injection, schedule: Q01DX001 (ip), vehicle: distilled water + Tween-80) was 124 % of control and the T/C (dose: 16.0 mg/kg/injection, schedule: Q01DX001 (ip), vehicle: other) was 113 % of control. For the same molecule, the T/C (dose: 64.0 mg/kg/injection, schedule: Q01DX001 (ip), vehicle: distilled water + Tween-80) was 171 % of control, the T/C (dose: 64.0 mg/kg/injection, schedule: Q01DX001 (ip), vehicle: other) was 121 % of control and the T/C (dose: 128.0 mg/kg/injection, schedule: Q01DX001 (ip), vehicle: other) was 183 % of control.

For Nc1ncnc2c1ncn2CCOCC(O)CO (centres undefined), the T/C [4] was 100 % of control, the T/C [5] was 95 % of control and the T/C [6] was 93 % of control.

In the case of C=C(Cl)/C=N/C(=O)NC(O)C(=C)Cl (centres undefined), the T/C [9] is reported as 93 % of control, the T/C [10] is reported as 96 % of control and the T/C [11] is reported as 93 % of control.

In the case of COc1cccc2c(NCCCNCCCNc3c4ccccc4nc4c(OC)cccc34)c3ccccc3nc12, the T/C (dose: 5.0 mg/kg/injection, schedule: Q01DX009 (ip), vehicle: other) is reported as 153 % of control and the T/C (dose: 10.0 mg/kg/injection, schedule: Q01DX009 (ip), vehicle: other) is reported as 157 % of control.

CCn1c2ccccc2c2cc(N=Nc3ccc(O)c4ccccc34)ccc21 was tested, and the T/C [12] was 105 % of control, the T/C [13] was 101 % of control and 106 % of control and the T/C [14] was 100 % of control and 102 % of control.

For O=C(O)CNC(=O)/C=C/c1ccc(O)c(O)c1, the T/C [15] was 114 % of control, the T/C [16] was 100 % of control and the T/C [17] was 100 % of control.

With CCCCC(CC)CN=Cc1c(O)c(O)c(C(C)C)c2cc(C)c(-c3c(C)cc4c(C(C)C)c(O)c(O)c(C=NCC(CC)CCCC)c4c3O)c(O)c12 (centres undefined) the T/C [9] was 93 % of control, the T/C [10] was 88 % of control and the T/C [11] was 86 % of control.

With CC1OC(O[C@H]2C[C@](O)(C(=O)CO)Cc3c(O)c4c(c(O)c32)C(=O)c2c(OCc3ccccc3)cccc2C4=O)CC(N)C1O (some centres undefined) the T/C (dose: 3.13 mg/kg/injection, schedule: Q04DX003 (ip), vehicle: water) was 118 % of control, the T/C (dose: 6.25 mg/kg/injection, schedule: Q04DX003 (ip), vehicle: distilled water + Tween-80) was 110 % of control and the T/C (dose: 6.25 mg/kg/injection, schedule: Q04DX003 (ip), vehicle: water) was 118 % of control. The T/C (dose: 12.5 mg/kg/injection, schedule: Q04DX003 (ip), vehicle: water) was 123 % of control and the T/C (dose: 25.0 mg/kg/injection, schedule: Q04DX003 (ip), vehicle: water) was 123 % of control.

CC1=NC2=CC=CC3=NC(C(Cl)(Cl)Cl)=NC(=N1)N23 was tested, and the T/C (dose: 60.0 mg/kg/injection, schedule: Q01DX005 (ip), vehicle: Klucel + Tween-80) was 102 % of control, the T/C (dose: 120.0 mg/kg/injection, schedule: Q01DX005 (ip), vehicle: Klucel + Tween-80) was 102 % of control and the T/C (dose: 240.0 mg/kg/injection, schedule: Q01DX005 (ip), vehicle: Klucel + Tween-80) was 102 % of control.

In the case of CCCCCCCCC[N+]1(CC)CCCC1, the T/C (dose: 6.25 mg/kg/injection, schedule: Q01DX009 (ip), vehicle: saline) is reported as 117 % of control, the T/C (dose: 12.5 mg/kg/injection, schedule: Q01DX009 (ip), vehicle: saline) is reported as 117 % of control and the T/C (dose: 25.0 mg/kg/injection, schedule: Q01DX009 (ip), vehicle: saline) is reported as 91 % of control.

With CCCCC(=O)C(=O)c1ccc(O)cc1O the T/C [12] was 116 % of control, the T/C [13] was 114 % of control and the T/C [14] was 110 % of control.

With COn1nnc2ccc([N+](=O)[O-])cc21 the T/C (dose: 50.0 mg/kg/injection, schedule: Q01DX001 (ip), vehicle: saline with Tween-80) was 99 % of control, the T/C (dose: 100.0 mg/kg/injection, schedule: Q01DX001 (ip), vehicle: saline with Tween-80) was 101 % of control and the T/C (dose: 200.0 mg/kg/injection, schedule: Q01DX001 (ip), vehicle: saline with Tween-80) was 92 % of control.

CC(=O)OC1C=CC2Oc3ccc(C)cc3C1(C)O2 (centres undefined) was tested, and the T/C [4] was 93 % of control, the T/C [5] was 106 % of control and the T/C [6] was 101 % of control.

O=C(OCCCCCl)c1ccccc1 was tested, and the T/C (dose: 50.0 mg/kg/injection, schedule: Q01DX009 (ip), vehicle: saline + Tween-80 + alcohol) was 104 % of control, the T/C (dose: 100.0 mg/kg/injection, schedule: Q01DX009 (ip), vehicle: saline + Tween-80 + alcohol) was 104 % of control and the T/C (dose: 200.0 mg/kg/injection, schedule: Q01DX009 (ip), vehicle: saline + Tween-80 + alcohol) was 110 % of control. For the same molecule, the T/C (dose: 400.0 mg/kg/injection, schedule: Q01DX009 (ip), vehicle: saline + Tween-80 + alcohol) was 112 % of control.

CCCCN(CCCC)C(C)C(O)c1ccc2cc(Br)c3ccccc3c2c1 (centres undefined) was tested, and the T/C [9] was 100 % of control, the T/C [10] was 98 % of control and the T/C [11] was 91 % of control.

In the case of CCC1=C2C(=O)c3ccccc3C2=C(C)S(=O)(=O)O1, the T/C (dose: 50.0 mg/kg/injection, schedule: Q04DX003 (ip), vehicle: saline with Tween-80) is reported as 109 % of control and the T/C [3] is reported as 86 % of control.

In the case of CC(C)N(C(C)C)P1(=S)N(C(C)(C)C)N=NN1C(C)(C)C, the T/C [15] is reported as 91 % of control, the T/C [16] is reported as 101 % of control and the T/C [17] is reported as 91 % of control.

For COC(=S)c1cccc(C(=S)OC)c1, the T/C [2] was 108 % of control, the T/C [7] was 115 % of control and the T/C [8] was 108 % of control.

In the case of COc1cc(C=Nc2cc(Cl)c(Cl)c(Cl)c2)ccc1N(CCCl)CCCl, the T/C (dose: 0.79 mg/kg/injection, schedule: Q01DX009 (ip), vehicle: Klucel (hydroxypropylcellulose) (HPC)) is reported as 105 % of control.

CC(=O)CNc1ccccc1C(N)=O was tested, and the T/C [15] was 101 % of control, the T/C [16] was 95 % of control and the T/C [17] was 104 % of control.

In the case of CS(=O)(=O)NC1CC(=O)N(Cc2ccccc2)C1=O (centres undefined), the T/C [18] is reported as 91 % of control, the T/C [19] is reported as 99 % of control and the T/C [20] is reported as 105 % of control.

For O=C(O)CNC(=O)Cc1cccc2ccccc12, the T/C [15] was 102 % of control, the T/C [16] was 98 % of control and the T/C [17] was 95 % of control.

In the case of CCCCOCC1CO1 (centres undefined), the T/C [1] is reported as 100 % of control, the T/C [2] is reported as 100 % of control and the T/C [7] is reported as 95 % of control. For the same molecule, the T/C [8] was 90 % of control.

For Fc1ccc(NC(=S)NC2CC2)c(F)c1, the T/C [2] was 104 % of control and the T/C [7] was 104 % of control.

CCC1OCN2CCCCC12 (centres undefined) was tested, and the T/C (dose: 12.5 mg/kg/injection, schedule: Q01DX005 (ip), vehicle: saline) was 100 % of control and 105 % of control, the T/C [18] was 107 % of control and 108 % of control and the T/C [19] was 105 % of control and 107 % of control and 108 % of control. For the same molecule, the T/C [20] was 108 % of control and 110 % of control.
